Measurements taken from US20190142810A1, “MITOCHONDRIAL INHIBITORS FOR THE TREATMENT OF PROLIFERATION DISORDERS” (Basilea Pharmaceutica International AG, priority 2016, published 2019).

Assays:
Format in all cases: cell-based
[1] = system: HeLa glucose versus HeLa galactose cells; assay: Cell growth assays (crystal violet) in HeLa galactose and HeLa glucose cells; conditions: FIG. 1, crystal violet cell growth assay
Procedure: The cervical tumor cell line HeLa (ATCC, CCL-2) was cultivated in DMEM medium (Invitrogen cat. no. 11971, 4.5 g/L high glucose) containing 10% fetal calf serum (Sigma cat. no. F9665) and 1% Penicillin/Streptomycin (Sigma cat. no. P0781) at 37° C. in 5% CO2. HeLa galactose cells (i.e. HeLa cells that grow in high concentrations of galactose) were generated from HeLa glucose cells (i.e. HeLa cells that grow in high concentrations of glucose) by gradually changing the amount of glucose in the media to zero glucose in the presence of galactose as a sugar source (50% galactose/50% glucose media for one week, then 75% galactose/25% glucose media for one week, to 100% galactose media in the third week). Galactose media (Invitrogen cat. no. 11966) was supplemented with 10 mM galactose (Sigma cat. no. G5388).
Cell Growth and Proliferation Assay of HeLa Galactose and Glucose Cells
HeLa galactose cells and HeLa glucose cells were seeded in 96 well plates (TPP, cat. no 92696) at 2000 and 1500 cells/well, respectively, in 100 μL of complete medium. […] Absorbance at 590 nm was measured using a SpectraMax® 250 plate reader (Molecular Devices). Antiproliferative/growth inhibition IC50s were calculated from concentration-response curves using GraphPad Prism software. […]

[2] = system: Oxygen consumption (mitochondrial function); assay: Oxygen consumption assay (MitoXpress probe); conditions: 5 h, MitoXpress probe signal, kinetic analysis at 37° C. for 5 hours, compared to untreated cells
In short: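 Cells seeded at 50′000/well, after 24 h given fresh media with inhibitor at a range of concentrations, then MitoXpress probe under mineral oil. Kinetic TRF read (380 nm excitation, 650 or 665 nm emission) at 37° C. for 5 hours. IC50 = concentration inhibiting 50% of probe signal versus untreated cells.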

HeLa galactose cells = assay: Cell growth and proliferation assay of HeLa galactose cells (crystal violet); conditions: Homo sapiens, HeLa, 72 h, 72 hours incubation, crystal violet staining, absorbance at 590 nm
In short: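 HeLa cells adapted stepwise over three weeks to glucose-free galactose medium plus 10 mM galactose, seeded at 2000 cells/well and treated 72 h with compounds (0.001% DMSO) at 37° C. Growth read by crystal violet staining, dye solubilized and absorbance at 590 nm; IC50 from concentration-response curves.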

Row | Compound | differential sensitivity in HeLa glucose versus HeLa galactose cell growth [1] | IC50 [2] [nM] | IC50 (HeLa galactose cells) [nM]
1 | Antimycin A | differential sensitivity in HeLa glucose versus HeLa galactose cell growth is exhibited | – | –
2 | Cc1nsc(NC(=O)N2CC/C(=C\c3ccc(Cl)cc3F)CC2C)n1 (stereo not shown) [Example 86, (4E)-4-[(4-chloro-2-fluoro-phenyl)methylene]-2-methyl-N-(3-methyl-1,2,4-thiadiazol-5-yl)piperidine-1-carboxamide] | – | 61 | 21
3 | Cc1cc(NC(=O)N2CCC(Cc3c(F)cc(N(C)C)cc3F)CC2)ccn1 [Example 153] | – | 119 | 34
4 | CNc1ccc(C=C2CCN(C(=O)Nc3nc(C)ns3)CC2)c(F)c1 [Example 109] | – | 103 | 55
5 | Cc1cc(NC(=O)N2CCC(C(=O)c3c(F)cc(C(F)(F)F)cc3F)CC2)ccn1 [Example 173] | – | 136 | 54
6 | Cc1nsc(NC(=O)N2CCC/C(=C/c3ccc(Cl)cc3F)CC2)n1 [Example 118, (4Z)-4-[(4-chloro-2-fluoro-phenyl)methylene]-N-(3-methyl-1,2,4-thiadiazol-5-yl)azepane-1-carboxamide] | – | 70 | 43
7 | Cc1nsc(NC(=O)N2CCC(Cc3ccc(N(C)C)cc3F)CC2)n1 [Example 46] | – | 129 | 47
8 | Cc1nsc(NC(=O)N2CCC(=Cc3ccc(OC(F)(F)F)cc3F)CC2)n1 [Example 54] | – | 235 | 186
9 | COc1cc(F)c(CC2CCN(C(=O)Nc3nc(C)ns3)CC2)cn1 [Example 68] | – | 179 | 100
10 | Cc1nsc(NC(=O)N2CCC(=Cc3c(F)cc(C(F)(F)F)cc3F)CC2)n1 [Example 41, 4-[[2,6-difluoro-4-(trifluoromethyl)phenyl]methylene]-N-(3-methyl-1,2,4-thiadiazol-5-yl)piperidine-1-carboxamide] | exhibit differential sensitivity | 41 | 23
11 | Cc1nsc(NC(=O)N2CCC(Cc3ccc(F)cc3F)CC2)n1 [Example 60, 4-[(2,4-difluorophenyl)methyl]-N-(3-methyl-1,2,4-thiadiazol-5-yl)piperidine-1-carboxamide] | – | 68 | 53
12 | O=C(Nc1nc(CCO)ns1)N1CCC(Cc2ccc(Cl)cc2F)CC1 [Example 96] | – | 361 | 208
13 | Cc1nsc(NC(=O)N2CCC(Cc3c(F)cc(N(C)C)cc3F)CC2)n1 [Example 113, 4-[[4-(dimethylamino)-2,6-difluoro-phenyl]methyl]-N-(3-methyl-1,2,4-thiadiazol-5-yl)piperidine-1-carboxamide] | – | 52 | 35
14 | Cc1nsc(NC(=O)N2CCC(Cc3ccc(C(C)C)cc3)CC2)n1 [Example 16] | – | 326 | 260
15 | Cc1nsc(NC(=O)N2CCC(Cc3ccc(Cl)cc3C)CC2)n1 [Example 14] | – | 200 | 146
16 | Cc1nsc(NC(=O)N2CCC(C(=O)c3ccc(Cl)cc3)CC2)n1 [Example 74, 4-(4-chlorobenzoyl)-N-(3-methyl-1,2,4-thiadiazol-5-yl)piperidine-1-carboxamide] | – | 51 | 34
17 | Cc1nsc(NC(=O)N2CCCC(Cc3c(F)cc(N(C)C)cc3F)CC2)n1 (stereo not shown) [Example 121, 4-[[4-(dimethylamino)-2,6-difluoro-phenyl]methyl]-N-(3-methyl-1,2,4-thiadiazol-5-yl)azepane-1-carboxamide] | – | 54 | 20
18 | Cc1nsc(NC(=O)N2CCC(Cc3ccc(OC(F)(F)F)cc3F)CC2)n1 [Example 55] | – | 383 | 202
19 | Cc1nsc(NC(=O)N2CCC(Cc3ccc(C)c(F)c3)CC2)n1 [Example 29] | – | 205 | 256
20 | Cc1nsc(NC(=O)N2CCC(=Cc3ccc(C(F)(F)F)cc3F)CC2)n1 [Example 38] | – | 131 | 61
21 | COc1ccc(CC2CCN(C(=O)Nc3nc(C)ns3)CC2)c(F)c1 [Example 30] | – | 178 | 59
22 | Cc1nsc(NC(=O)N2CC/C(=C\c3ccc(Cl)cc3F)C(C)C2)n1 (stereo not shown) [Example 82, (4E)-4-[(4-chloro-2-fluoro-phenyl)methylene]-3-methyl-N-(3-methyl-1,2,4-thiadiazol-5-yl)piperidine-1-carboxamide] | – | 78 | 31
23 | Cc1cc(NC(=O)N2CCC(=Cc3c(F)cc(C(F)(F)F)cc3F)CC2)ccn1 [Example 138, 4-[[2,6-difluoro-4-(trifluoromethyl)phenyl]methylene]-N-(2-methyl-4-pyridyl)piperidine-1-carboxamide] | – | 147 | 21
